Assay results published in US20180201592A1, “2-AMINO-1,3,4-THIADIAZINE AND 2-AMINO-1,3,4-OXADIAZINE BASED ANTIFUNGAL AGENTS” (F2G Limited, priority 2015, published 2018).

Tests used:
Conditions in all cases: banded MIC grade
A. fumigatus 210 [1] = assay: Minimum inhibitory concentration, RPMI medium; format: cell-based
Procedure, shortened: (§1)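 Broth microdilution in RPMI 1640 (2% glucose, 0.135 M MOPS, pH 7.0) at 1-2×10^4 cfu/mL, testing 50-0.05 mg/L in doubling steps. After 24-48 hrs at 35° C, OD at 485 nm was read, and the MIC was taken as the lowest drug level suppressing growth by >80% relative to drug-free wells.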

A. fumigatus = assay: Minimum inhibitory concentration, RPMI medium; format: cell-based
Procedure, shortened: as §1

A. terreus 49 [2] = assay: Minimum inhibitory concentration, YAG medium; format: cell-based, Aspergillus terreus
Procedure, shortened: (§2)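 Twofold aqueous dilution series, prepared from a DMSO stock (5 mg/mL), were inoculated with Aspergillus spp. spores; incubation lasted 24 hrs at 35° C before OD 485 nm readings.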

A. fumigatus 210 [3] = assay: Minimum inhibitory concentration, YAG medium; format: cell-based, Aspergillus fumigatus
Procedure, shortened: (§3)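 Growth was read as optical density at 485 nm after 24 hrs at 35° C, and the MIC taken as the lowest drug concentration cutting growth by >70% relative to drug-free wells. Plates held doubling dilutions (50-0.05 mg/L) with 1-2×10^4 cfu/mL spores in YAG medium.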

Aspergillus fumigatus = assay: Minimum inhibitory concentration, YAG medium; format: cell-based
Procedure, shortened: as §3

Aspergillus niger = assay: Minimum inhibitory concentration, YAG medium; format: cell-based
Procedure, shortened: as §2

Aspergillus flavus = assay: Minimum inhibitory concentration, YAG medium; format: cell-based
Procedure, shortened: as §2

Aspergillus terreus = assay: Minimum inhibitory concentration, YAG medium; format: cell-based
Procedure, shortened: as §2

A. terreus = assay: Minimum inhibitory concentration, RPMI medium; format: cell-based
Procedure, shortened: (§4)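 Incubated at 35° C for 24-48 hrs in RPMI 1640 with twofold water dilutions of compound (from 5 mg/mL stock in DMSO); absorbance at 485 nm indicated growth.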

A. terreus 49 [4] = assay: Minimum inhibitory concentration, RPMI medium; format: cell-based
Procedure, shortened: as §4

C. albicans = assay: Minimum inhibitory concentration, RPMI medium; format: cell-based
Procedure, shortened: as §4

A. flavus = assay: Minimum inhibitory concentration, RPMI medium; format: cell-based
Procedure, shortened: as §4

C. tropicalis = assay: Minimum inhibitory concentration, RPMI medium; format: cell-based
Procedure, shortened: as §4

C. glabrata = assay: Minimum inhibitory concentration, RPMI medium; format: cell-based
Procedure, shortened: as §4

C. parapsilosis = assay: Minimum inhibitory concentration, RPMI medium; format: cell-based
Procedure, shortened: as §4

A. niger = assay: Minimum inhibitory concentration, RPMI medium; format: cell-based
Procedure, shortened: as §4

C. krusei = assay: Minimum inhibitory concentration, RPMI medium; format: cell-based
Procedure, shortened: as §4

Row | SMILES | MIC grade, A. FUMIGATUS 210, RPMI media (A. fumigatus 210 [1]) | MIC grade, A. FUMIGATUS, RPMI media (A. fumigatus) | MIC grade, A. TERREUS 49, YAG media (A. terreus 49 [2]) | MIC grade, A. FUMIGATUS 210, YAG media (A. fumigatus 210 [3]) | MIC grade, A. FUMIGATUS, YAG media (Aspergillus fumigatus) | MIC grade, A. NIGER, YAG media (Aspergillus niger) | MIC grade, A. FLAVUS, YAG media (Aspergillus flavus) | MIC grade, A. TERREUS, YAG media (Aspergillus terreus) | MIC grade, A. TERREUS, RPMI media (A. terreus) | MIC grade, A. TERREUS 49, RPMI media (A. terreus 49 [4]) | MIC grade, C. ALBICANS, RPMI media (C. albicans) | MIC grade, A. FLAVUS, RPMI media (A. flavus) | MIC grade, C. TROPICALIS, RPMI media (C. tropicalis) | MIC grade, C. GLABRATA, RPMI media (C. glabrata) | MIC grade, C. PARAPSILOSIS, RPMI media (C. parapsilosis) | MIC grade, A. NIGER, RPMI media (A. niger) | MIC grade, C. KRUSEI, RPMI media (C. krusei)
1 | NC1=NN=C(CCCCOCc2ccc(F)cc2F)CS1 | 3 (3: 1-5 mg/L) | 4 (4: <1 mg/L) | 4 (4: <0.2 mg/L) | 4 (4: <0.2 mg/L) | 4 (4: <0.2 mg/L) | 4 (4: <0.2 mg/L) | 4 (4: <0.2 mg/L) | 4 (4: <0.2 mg/L) | 4 (4: <1 mg/L) | 4 (4: <1 mg/L) | 4 (4: <1 mg/L) | 4 (4: <1 mg/L) | 4 (4: <1 mg/L) | 4 (4: <1 mg/L) | 4 (4: <1 mg/L) | 4 (4: <1 mg/L) | 4 (4: <1 mg/L)
2 | NC1=NN=C(CCCCOCc2cccc(Br)c2)CS1 | 2 (2: 5-20 mg/L) | 4 (4: <1 mg/L) | 4 (4: <0.2 mg/L) | 4 (4: <0.2 mg/L) | 4 (4: <0.2 mg/L) | 4 (4: <0.2 mg/L) | 4 (4: <0.2 mg/L) | 4 (4: <0.2 mg/L) | 3 (3: 1-5 mg/L) | 3 (3: 1-5 mg/L) | 4 (4: <1 mg/L) | 4 (4: <1 mg/L) | 4 (4: <1 mg/L) | 3 (3: 1-5 mg/L) | 4 (4: <1 mg/L) | 3 (3: 1-5 mg/L) | 4 (4: <1 mg/L)
3 | NC1=NN=C(CCCCOCc2cccc(Cl)c2)CS1 | 2 (2: 5-20 mg/L) | 4 (4: <1 mg/L) | 4 (4: <0.2 mg/L) | 4 (4: <0.2 mg/L) | 4 (4: <0.2 mg/L) | 4 (4: <0.2 mg/L) | 4 (4: <0.2 mg/L) | 4 (4: <0.2 mg/L) | 3 (3: 1-5 mg/L) | 3 (3: 1-5 mg/L) | 4 (4: <1 mg/L) | 4 (4: <1 mg/L) | 4 (4: <1 mg/L) | 3 (3: 1-5 mg/L) | 4 (4: <1 mg/L) | 3 (3: 1-5 mg/L) | 4 (4: <1 mg/L)
4 | NC1=NN=C(CCCCOCc2cccc(C3CC3)c2)CS1 | 2 (2: 5-20 mg/L) | 3 (3: 1-5 mg/L) | 3 (3: 0.2-1 mg/L) | 3 (3: 0.2-1 mg/L) | 3 (3: 0.2-1 mg/L) | 3 (3: 0.2-1 mg/L) | 3 (3: 0.2-1 mg/L) | 3 (3: 0.2-1 mg/L) | 2 (2: 5-20 mg/L) | 2 (2: 5-20 mg/L) | 4 (4: <1 mg/L) | 2 (2: 5-20 mg/L) | 4 (4: <1 mg/L) | 2 (2: 5-20 mg/L) | 4 (4: <1 mg/L) | 2 (2: 5-20 mg/L) | 4 (4: <1 mg/L)
